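These data come from cells grown in 96-well plates and exposed to compound for 48 hours at five concentrations. GI50 = concentration required for 50% inhibition of growth. At the TGI there is no net growth.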
What was measured:
Experiment in all cases: NCI tumour cell line growth inhibition, 48 h
[1] = test system: UO-31 renal
[2] = test system: RPMI-8226 leukemia
[3] = test system: SNB-19 CNS
[4] = test system: PC-3 prostate
[5] = test system: SK-MEL-28 melanoma
[6] = test system: UACC-257 melanoma
[7] = test system: SNB-75 CNS
[8] = test system: MDA-MB-231 breast
[9] = test system: A549 NSCLC
[10] = test system: U251 CNS

| SMILES | TGI [1] | TGI [2] | TGI [3] | TGI [4] | TGI [5] | TGI [6] | TGI [7] | TGI [8] | TGI [9] | GI50 [6] | GI50 [8] | TGI [10] | GI50 [1] | GI50 [2] | GI50 [3] | GI50 [4] | GI50 [5] | GI50 [7] | GI50 [10] | GI50 [9] |
| --- | --- | --- | --- | --- | --- | --- | --- | --- | --- | --- | --- | --- | --- | --- | --- | --- | --- | --- | --- | --- |
| Cc1nn(C(=O)Cc2ccccc2)c2c1C(c1ccc(/C=C/c3ccccc3)cc1)SC(N)=N2 (stereo not drawn) | > 100 µM | > 100 µM | > 100 µM | > 100 µM | > 100 µM | > 100 µM | > 100 µM | > 100 µM | > 100 µM | – | – | – | – | – | – | – | – | – | – | – |
| Cc1cnc2[nH]c(-c3cccc4ccccc34)cc(=O)c2c1 | 34 µM | 28.2 µM | > 100 µM | > 100 µM | > 100 µM | > 100 µM | – | – | > 100 µM | 15 µM | 0.0119 µM | 0.0129 µM | – | – | – | – | – | – | – | – |
| C#CCN(C(=O)C(F)(F)F)C(/C=C\C(=O)OC)(C(=O)OCC)C(=O)OCC | > 100 µM | > 100 µM | > 100 µM | > 100 µM | > 100 µM | – | > 100 µM | > 100 µM | > 100 µM | – | – | > 100 µM | – | – | – | – | – | – | – | – |
| COC(=O)c1c(C)cccc1C1CN=NC12Cc1cc(C)c(C)cc1C2=O (stereo not drawn) | > 100 µM | – | > 100 µM | > 100 µM | > 100 µM | > 100 µM | > 100 µM | > 100 µM | > 100 µM | – | – | > 100 µM | – | – | – | – | – | – | – | – |
| O=[N+]([O-])c1ccc(N/N=C\c2cc(Br)ccc2O)nc1 | 2.01 µM | > 100 µM | 19.8 µM | > 100 µM | > 100 µM | – | 3.85 µM | 4.76 µM | 29.8 µM | – | 0.511 µM | 3.24 µM | 0.376 µM | 0.753 µM | 1.05 µM | 1.67 µM | 2.05 µM | 1.32 µM | 0.736 µM | 2.84 µM |
| O=C(NC1CCCCC1)c1n[nH]nc1Cl | > 100 µM | – | > 100 µM | > 100 µM | > 100 µM | > 100 µM | – | > 100 µM | > 100 µM | – | – | > 100 µM | – | – | – | – | – | – | – | – |
| CC(=O)Nc1nc2c(=O)c3ccccc3sc2s1 | > 100 µM | > 100 µM | > 100 µM | > 100 µM | – | > 100 µM | > 100 µM | > 100 µM | > 100 µM | – | – | – | – | – | – | – | – | – | – | – |
| CCN(CC)/[N+]([O-])=N/OS(=O)(=O)N(C)C | – | > 100 µM | > 100 µM | – | > 100 µM | > 100 µM | > 100 µM | > 100 µM | > 100 µM | – | – | > 100 µM | – | – | – | – | – | – | – | – |
| COc1cc(S(=O)(=O)Nc2nc(-c3ccc(N=Cc4ccccc4O)cc3)cs2)ccc1Cl | > 100 µM | – | > 100 µM | > 100 µM | > 100 µM | > 100 µM | > 100 µM | > 100 µM | > 100 µM | – | – | > 100 µM | – | – | – | – | – | – | – | – |
| CC1=C(C(=O)NNC(=O)C[N+](C)(C)C)CC(C(=O)NNC(=O)C[N+](C)(C)C)=C(C)N1 | > 100 µM | > 100 µM | > 100 µM | > 100 µM | – | > 100 µM | – | > 100 µM | > 100 µM | – | – | > 100 µM | – | – | – | – | – | – | – | – |
| CCCCCCC1OC23OC1CCC2C(O)CCC3O (stereo not drawn) | > 100 µM | > 100 µM | > 100 µM | > 100 µM | > 100 µM | > 100 µM | > 100 µM | > 100 µM | – | – | – | > 100 µM | – | – | – | – | – | – | – | – |
| Cc1cc2nnn(C3CCCCO3)c2cc1C (stereo not drawn) | > 100 µM | – | > 100 µM | > 100 µM | – | > 100 µM | > 100 µM | > 100 µM | > 100 µM | – | – | > 100 µM | – | – | – | – | – | – | – | – |
| C/C=C1/C=CC2c3[nH]c4ccccc4c3CCN2C1 (stereo not drawn) | – | > 400 µM | > 400 µM | – | > 400 µM | > 400 µM | – | – | > 400 µM | – | – | > 400 µM | – | – | – | – | – | – | – | – |
| COC(=O)C1(CCCCl)CCCN1C(=O)OC(C)(C)C (stereo not drawn) | > 100 µM | – | > 100 µM | > 100 µM | > 100 µM | > 100 µM | > 100 µM | > 100 µM | > 100 µM | – | – | > 100 µM | – | – | – | – | – | – | – | – |
| CCOC(OCC)(OCC)C(Br)CC (stereo not drawn) | > 100 µM | 47.5 µM | > 100 µM | – | > 100 µM | > 100 µM | > 100 µM | – | > 100 µM | – | – | > 100 µM | – | – | – | – | – | – | – | – |
| N/C(CCSCCSCC/C(N)=N\O)=N\O | > 100 µM | > 100 µM | > 100 µM | > 100 µM | > 100 µM | – | > 100 µM | > 100 µM | > 100 µM | – | – | > 100 µM | – | – | – | – | – | – | – | – |
| O=[N+]([O-])c1ccc2c3c1[C@@H]1O[C@@H]1c1cccc(c1-3)[C@@H]1O[C@H]21 | – | > 100 µM | > 58.5 µM | > 28.5 µM | > 22.1 µM | > 25.1 µM | 17.5 µM | 15.3 µM | 31 µM | – | – | 11.8 µM | – | – | – | – | – | – | – | – |
| O=C(O)c1ccccc1/C=C1\Cc2cc3c(cc2C1=O)CCC3 | > 100 µM | 55.2 µM | > 100 µM | – | > 100 µM | 79.2 µM | 25 µM | 51.2 µM | > 100 µM | – | – | 94.3 µM | – | – | – | – | – | – | – | – |
| CC(=O)n1c2ccc(Br)cc2c2nc3ccccc3nc21 | > 100 µM | > 100 µM | > 100 µM | > 100 µM | > 100 µM | > 100 µM | > 100 µM | > 100 µM | – | – | – | > 100 µM | – | – | – | – | – | – | – | – |
| COc1cc(Nc2cc(Cl)cc(Cl)c2)nc(N)n1 | 31.2 µM | 56.5 µM | 64.8 µM | 59.6 µM | – | 38.8 µM | 43.6 µM | 43.8 µM | 48.5 µM | – | – | 41.2 µM | – | – | – | – | – | – | – | – |
| COC(=O)/C(=N\N)C(C(=O)C(=O)Nc1cc(Cl)ccc1Cl)c1nc2ccc([N+](=O)[O-])cc2[nH]c1=O (stereo not drawn) | > 100 µM | > 100 µM | – | > 100 µM | > 100 µM | > 100 µM | > 100 µM | > 100 µM | > 100 µM | – | – | > 100 µM | – | – | – | – | – | – | – | – |
| Cc1cccc(C)c1NC(=O)C(=O)CC(=O)c1sc(Nc2c(C)cccc2C)nc1C | > 100 µM | > 100 µM | > 100 µM | > 100 µM | – | > 100 µM | > 100 µM | > 100 µM | > 100 µM | – | – | > 100 µM | – | – | – | – | – | – | – | – |
| O=C1CSC(c2cc3cc(Br)ccc3nc2Cl)N1c1ccc(Cl)cc1 (stereo not drawn) | > 100 µM | > 100 µM | > 100 µM | > 100 µM | > 100 µM | 42.5 µM | > 100 µM | > 100 µM | > 100 µM | – | – | – | – | – | – | – | – | – | – | – |

Source: PubChem BioAssay (NCI)
